Where a name gives a salt, the structure may show the parent alone.
target: HSET full length protein (Homo sapiens (Human), UniProt Q9BW19); test: HSET ADP-Glo Assay S - 3 μM ATP; format: biochemical; settings: 5 nM HSET, 70 μg/mL microtubule, 80 min at rt, read-out: COMBINED HSET ADP GLO IC50
Description: Example 281: Testing compounds of the present invention for inhibitory activities against HSET—HSET ADP-Glo Assay S—3 μM ATP
Reagents: (+4° C. Storage) • Paclitaxel Prod.No.TXD.01 2 mM in DMSO (from Universal Biologicals Cambridge). • Tubulin Protein (Pre-formed Microtubules): Bovine Brain Prod.No.MT001-XL Lot.025 10 mg/mL (from Universal Biologicals Cambridge).
Reagents: (−80° C. Storage) • MT001-XL—Tubulin Protein (Pre-formed Microtubules): Bovine Brain—reconstituted in buffer—15 mM PIPES pH7, 1 mM MgCl2, 20 μM paclitaxel (aliquots at 10 mg/mL) from Universal Biologicals Cambridge. • HSET full length protein—Current batch is FL HSET Prep1 (SEQ-000096_002-01_01) • Buffer is 20 mM Hepes pH 7.5, 200 mM NaCl, 2 mM TCEP, 5% glycerol (5 μL aliquots at 10.2 μM)
Reagents: (−20° C. Storage) • ADP-Glo Kinase Assay kit (Promega Prod.No.V9102) 10,000 assay points • ADP-Glo reagent (50 mL), Kinase Detection Reagent (100 mL), and Ultrapure ATP (10 mM) aliquoted
Buffer Stocks (filtered and stored at rt for up to 1 month) • HEPES acid, 4-(2-Hydroxyethyl)piperazine-1-ethanesulfonic acid MW:238, 238.3 mg/mL=1 M • 7149 mg/30 mL=1M (pH to 6.8 with 5 M NaOH) • PIPES, 1,4-Piperazinediethanesulfonic acid MW: 302.4, 30.24 mg/mL=100 mM; 907.2 mg/30 mL=100 mM (pH to 7 with 5 M NaOH, white cloudy suspension until the pH changes) • EGTA, Ethylene glycol-bis(2-aminoethylether)-N,N,N′,N′-tetraacetic acid MW: 380.35, 38.035 mg/mL=100 mM • 1901.75 mg/50 mL=100 mM (pH to ˜7 with 5 M NaOH)—takes a long time to get into solution and for pH to stabilize • Triton-X-100, MW: 625, 62.5 mg/mL=100 mM (6.25% w/v) (viscous, pipette Triton X-100 with a Gilson using a trimmed pipette tip)
ECHO Protocol • Create an ECHO intermediate plate by adding 24.5 μL DMSO to columns 1 & 2, and 40 μL DMSO to columns 23 & 24 of an ECHO 384PP plate • Add 100 nL of compound/DMSO per well in 384-well Proxi-Plate Plus (white) —Perkin Elmer Cat #6008289 using ECHO dose response protocol 100 nL normal to proxi_8pt_200 uM.
Assay buffer (Keep on ice): HEPES pH 6.8, MgCl2, EGTA, Triton X-100, DTT, HPLC H2O Microtubule Working Solution (3.2): • 1 ml PM buffer: PIPES pH 7.0, MgCl2, HPLC H2O, Paclitaxel, mix well, store at rt • Then add 26.4 μL of 10 mg/ml microtubules to 724 μL of the above PM buffer to make 750 μL of microtubule working solution @350 μg/mL microtubules (store at rt)
Stock HSET enzyme solution (3.1)—keep on ice • Add 1.33 μL 10.2 μM HSET Prepi (SEQ-000096_002-01_01) to 1358 μL assay buffer to make a 10 nM stock for a 5 nM final assay concentration (1/1020 dilution).
HSET/Microtubule working solution (3.3) • Mix solutions 3.1 and 3.2 in the ratio of 2.5:1 (1214.3 μL 3.1+485.7 μL 3.2) keep at rt for 15 min • 3.2 is diluted 3.5-fold, 3.1 is diluted 1.4-fold BLANK solution is 357 μL 2XAB+143 μL microtubule working solution 3.2. (Same proportions as HSET/Microtubule working solution (3.3))
ATP Working solution is 1 μL 10 mM UltraPure ATP (Promega kit)+999 μL ddH20 gives 10 μM ATP for a 3 μM final assay concentration, stored on ice.
Assay procedure in PROXIPLATE 384 PLUS WHITE (Perkin Elmer) plates (Remove 2.4 mL ADP Glo and 4.5 mL Kinase detection reagent from freezer to warm up to rt) • Add 3.5 μL BLANK solution to assay plate (column 12) • Add 3.5 μL HSET/Microtubule solution (3.3) (columns 1-11 & 13-24) • Centrifuge at 1000 rpm for 1 min • (pre-incubate enzyme and compound for 10 min)
Add 1.5 μL of 10 μM ATP to start reaction gives a final [HSET] of 5 nM, [ATP] of 3 μM and [microtubule] of 70 μg/mL, centrifuge at 1000 rpm for 1 min and incubated at rt for 80 min.
After the 80-minute incubation, stop reaction by adding 5 μL ADP-Glo reagent to all wells. Centrifuge for 1 min at 1000 rpm, leave for 40 min at rt.
In the dark/away from direct light, add 10 μL Kinase Detection Reagent (KDR) to all wells, Seal plate with a Topseal (Perkin Elmer Cat #6050185) and centrifuge as above, leave for 40 min at rt covered in foil. […]

Sequence of HSET full length protein (Q9BW19 whole entry): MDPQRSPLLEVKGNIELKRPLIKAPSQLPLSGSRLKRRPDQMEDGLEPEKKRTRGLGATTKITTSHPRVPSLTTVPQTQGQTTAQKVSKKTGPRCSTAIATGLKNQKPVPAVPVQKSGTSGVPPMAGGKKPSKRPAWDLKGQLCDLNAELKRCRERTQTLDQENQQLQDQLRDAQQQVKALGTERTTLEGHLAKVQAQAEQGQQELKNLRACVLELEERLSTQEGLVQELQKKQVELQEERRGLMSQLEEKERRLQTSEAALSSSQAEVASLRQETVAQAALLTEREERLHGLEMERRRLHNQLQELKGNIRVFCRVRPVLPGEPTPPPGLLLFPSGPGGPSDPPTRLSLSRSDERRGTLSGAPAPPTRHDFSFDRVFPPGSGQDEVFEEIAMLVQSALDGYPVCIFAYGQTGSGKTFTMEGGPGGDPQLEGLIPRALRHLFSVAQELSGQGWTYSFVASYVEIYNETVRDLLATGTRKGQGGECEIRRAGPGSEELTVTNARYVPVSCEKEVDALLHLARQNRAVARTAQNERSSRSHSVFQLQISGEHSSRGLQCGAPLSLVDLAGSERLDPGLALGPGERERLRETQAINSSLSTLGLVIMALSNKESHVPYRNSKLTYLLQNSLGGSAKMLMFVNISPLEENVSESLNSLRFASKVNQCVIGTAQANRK

First: Cc1nc(NC(=O)CCNC(=O)c2cccc(-c3nnn(C)n3)c2)sc1C(C)(C)C [Example 41, N-[3-[(5-tert-butyl-4-methyl-thiazol-2-yl)amino]-3-oxo-propyl]-3-(2-methyltetrazol-5-yl)benzamide]
Second: CNCCC[C@@H](CC(=O)Nc1nc(C)c(C(C)(C)C)s1)NC(=O)c1cccc(-n2nnc(C)n2)c1 [Example 60, (S)-N-(1-((5-(tert-butyl)-4-methylthiazol-2-yl)amino)-6-(methylamino)-1-oxohexan-3-yl)-3-(5-methyl-2H-tetrazol-2-yl)benzamide]
The IC50 of the first is 3.4-fold higher: 184 nM for the first, 54 nM for the second.

First: CCCOC(=O)c1sc(NC(=O)CCNC(=O)c2cc(Cl)cc(-c3noc(C)n3)c2)nc1C [Example 25, Propyl 2-(3-(3-chloro-5-(5-methyl-1,2,4-oxadiazol-3-yl)benzamido)propanamido)-4-methylthiazole-5-carboxylate]
Second: CCCOC(=O)c1sc(NC(=O)[C@H](N)CNC(=O)c2cccc(-c3noc(C)n3)c2)nc1C [Example 173, Propyl (R)-2-(2-amino-3-(3-(5-methyl-1,2,4-oxadiazol-3-yl)benzamido)propanamido)-4-methylthiazole-5-carboxylate formate]
The IC50 of the first is 4.8-fold lower: 13 nM for the first, 63 nM for the second. The first is the more potent here.

First: CCOC(=O)c1sc(C(=O)NCCNC(=O)c2cccc(-c3noc(CC)n3)c2)nc1C [Example 140, Ethyl-2-((2-(3-(5-ethyl-1,2,4-oxadiazol-3-yl)benzamido)ethyl)carbamoyl)-4-methylthiazole-5-carboxylate]
Second: CCOC(=O)c1sc(C(=O)NCCNC(=O)c2cccc(-c3noc(C)n3)c2)nc1C [Example 141, Ethyl-4-methyl-2-((2-(3-(5-methyl-1,2,4-oxadiazol-3-yl)benzamido)ethyl)carbamoyl)thiazole-5-carboxylate]
The IC50 of the first is 12-fold higher: 5040 nM for the first, 405 nM for the second.

Going from `Cc1nc(NC(=O)[C@@H](O)CNc2nccc3ccc(-c4cnn(C)c4)cc23)sc1C(=O)OC(C)(C)C` [Example 181, tert-Butyl (S)-2-(2-hydroxy-3-((7-(1-methyl-1 H-pyrazol-4-yl)isoquinolin-1-yl)amino)propanamido)-4-methylthiazole-5-carboxylate] to `Cc1nc(-c2ccc3ccnc(NC[C@@H](O)C(=O)Nc4nc(C)c(C(=O)OC(C)(C)C)s4)c3c2)no1` [Example 177, tert-Butyl (R)-2-(2-hydroxy-3-((7-(5-methyl-1,2,4-oxadiazol-3-yl)isoquinolin-1-yl)amino)propanamido)-4-methylthiazole-5-carboxylate], the IC50 falls from 14 nM to 2 nM (7-fold).

`CCOC(=O)c1sc(NC(=O)CCNC(=O)c2cccc(N3CCOCC3)c2)nc1C` [Example 7, Ethyl 4-methyl-2-(3-(3-morpholinobenzamido)propanamido)thiazole-5-carboxylate] and `CCOC(=O)c1sc(NCCCNC(=O)c2cccc(-c3noc(C)n3)c2)nc1C` [Example 21, Ethyl 4-methyl-2-[3-[[3-(5-methyl-1,2,4-oxadiazol-3-yl)benzoyl]amino]-propylamino]thiazole-5-carboxylate] are within 1.5-fold of each other in IC50: 15600 nM for the first, 17100 nM for the second.

First: Cc1nc(-c2ccc3ccnc(NCCC(=O)Nc4cc(C(C)(C)C)on4)c3c2)no1 [Example 77, N-(5-(tert-butyl)isoxazol-3-yl)-3-((7-(5-methyl-1,2,4-oxadiazol-3-yl)isoquinolin-1-yl)amino)propenamide]
Second: CCc1nc(NC(=O)CCNc2nccc3ccc(-c4noc(C)n4)cc23)sc1C(C)(C)C [Example 81, N-(5-(tert-butyl)-4-ethylthiazol-2-yl)-3-((7-(5-methyl-1,2,4-oxadiazol-3-yl)isoquinolin-1-yl)amino)propanamide]
The IC50 of the first is 26-fold higher: 556 nM for the first, 21 nM for the second.

Compared with `Cc1nc(-c2cccc(C(=O)N[C@@H](CC#N)CC(=O)Nc3nc(C)c(C(=O)OC(C)C)s3)c2)no1` [Example 195, Propan-2-yl 2-[(3S)-4-cyano-3-{[3-(5-methyl-1,2,4-oxadiazol-3-yl)phenyl]form-amido}butanamido]-4-methyl-1,3-thiazole-5-carboxylate], `Cc1nc(NC(=O)C[C@H](CC#N)NC(=O)c2cccc(C#N)c2)sc1C(=O)OC(C)C` [Example 207, Propan-2-yl 2-[(3S)-4-cyano-3-[(3-cyanophenyl)formamido]butan-amido]-4-methyl-1,3-thiazole-5-carboxylate] is 49-fold higher in IC50: 12 nM for the first, 590 nM for the second.

Compared with `Cc1nc(-c2ccc3ccnc(NC4CN(C(=O)Nc5nc(C)c(C(=O)OC(C)(C)C)s5)C4)c3c2)no1` [Example 230, tert-Butyl 4-methyl-2-[[3-[[7-(5-methyl-1,2,4-oxadiazol-3-yl)-1-isoquinolyl]amino]azetidine-1-carbonyl]amino]thiazole-5-carboxylate], `CNCCC[C@@H](CC(=O)Nc1nc(C)c(C(=O)OC(C)(C)C)s1)Nc1nccc2ccc(-c3noc(C)n3)cc12` [Example 168, tert-Butyl (S)-4-methyl-2-(3-((7-(5-methyl-1,2,4-oxadiazol-3-yl)isoquinolin-1-yl)amino)-6-(methylamino)hexanamido)thiazole-5-carboxylate] is 1.5-fold higher in IC50: 2 nM for the first, 3 nM for the second. The first is the more potent here.

Going from `CCCOC(=O)c1sc(NC(=O)[C@H](CNc2nccc3ccc(-c4noc(C)n4)cc23)OC)nc1C` [Example 186, Propyl (S)-2-(2-methoxy-3-((7-(5-methyl-1,2,4-oxadiazol-3-yl)isoquinolin-1-yl)amino)propanamido)-4-methylthiazole-5-carboxylate] to `Cc1nc(-c2ccc3ccnc(N[C@H]4C[C@@H](C(=O)Nc5nc(C)c(C(F)(F)F)s5)C4)c3c2)no1` [Example 103, (1s,3s)-3-((7-(5-methyl-1,2,4-oxadiazol-3-yl)isoquinolin-1-yl)amino)-N-(4-methyl-5-(trifluoromethyl)thiazol-2-yl)cyclobutane-1-carboxamide], the IC50 rises from 30 nM to 676 nM (23-fold). The first is the more potent here.

`Cc1nc(NC(=O)C[C@H](CC#N)NC(=O)c2cccc(-c3cnn(C)c3)n2)sc1C(=O)OC(C)C` [Example 213, Propan-2-yl 2-[(3S)-4-cyano-3-{[6-(1-methyl-1 H-pyrazol-4-yl)pyridin-2-yl]formamido}butanamido]-4-methyl-1,3-thiazole-5-carboxylate] and `Cc1nc(NC(=O)[C@H]2C[C@@H](NC(=O)c3cccc(-c4ncon4)c3)C2)sc1C(=O)OC(C)(C)C` [Example 105, tert-Butyl 2-((1s,3s)-3-(3-(1,2,4-oxadiazol-3-yl)benzamido)cyclobutane-1-carboxamido)-4-methylthiazole-5-carboxylate] are within 1.5-fold of each other in IC50: 1700 nM for the first, 1590 nM for the second.

Work on `CCCOC(=O)c1sc(NC(=O)CCNC(=O)c2cc(C(=O)OC)cc([N+](=O)[O-])c2)nc1C` [Example 33, Propyl 2-[3-[(3-methoxycarbonyl-5-nitro-benzoyl)amino]propanoylamino]-4-methyl-thiazole-5-carboxylate] yielded an IC50 of 161 nM.

Source: patent US20250084074A1, “SUBSTITUTED HETEROCYCLES AS HSET INHIBITORS” (MERCK PATENT GMBH, priority 2022, published 2025)
